Results from patent US8765727B2, “Macrocyclic compounds and their use as kinase inhibitors” (Incyte Corporation, priority 2009, dated 2014).

Experiments:
Type in all cases: biochemical
[1] = target: TYK2 (Homo sapiens (Human), UniProt P29597); assay: TYK2 assay (as described by Thompson et al.)
Source text: The invention will be described in greater detail by way of specific examples. The following examples are offered for illustrative purposes, and are not intended to limit the invention in any manner. Those of skill in the art will readily recognize a variety of non-critical parameters which can be changed or modified to yield essentially the same results. In some instances where the compounds of the examples were isolated by preparative HPLC in the presence of trifluoroacetic acid (TFA) or other acid, the compound may have been obtained as the corresponding salt. […] Certain compounds described in Tables 1 and in the Example section were tested for inhibitory activity of JAK/ALK targets according to assays such as those described herein or those known in the art [e.g., ALK assays described in WO 04/079326; and TYK2 assays described by James E. Thompson et. al, “Photochemical preparation of a pyridone containing tetracycle: A JAK protein kinase inhibitor,” Bioorganic & Medicinal Chemistry Letters, Volume 12, Issue 8, 22 Apr. 2002, Pages 1219-1223]. […] Some exemplary data of the compounds of the invention are shown in Table 1 in the experimental section.

[2] = target: human JAK1 (a.a. 837-1142) catalytic domain (Homo sapiens, UniProt P23458); assay: In vitro JAK kinase assay (HTRF), JAK1; conditions: 90 μM ATP, 500 nM peptide, room temperature 1 hr
Method: (§1) One or more compounds herein were tested for inhibitory activity of JAK targets according to the following in vitro assay described in Park et al., Analytical Biochemistry 1999, 269, 94-104. The catalytic domains of human JAK1 (a.a. 837-1142), JAK2 (a.a. 828-1132) and JAK3 (a.a. 781-1124) with an N-terminal His tag were expressed using baculovirus in insect cells and purified. The catalytic activity of JAK1, JAK2 or JAK3 was assayed by measuring the phosphorylation of a biotinylated peptide. The phosphorylated peptide was detected by homogenous time resolved fluorescence (HTRF). […] The ATP concentration in the reactions was 90 μM for JAK1, 30 μM for JAK2 and 3 μM for JAK3. Reactions were carried out at room temperature for 1 hr and then stopped with 20 μL 45 mM EDTA, 300 nM SA-APC, 6 nM Eu-Py20 in assay buffer (Perkin Elmer, Boston, Mass.). Binding to the Europium labeled antibody took place for 40 minutes and HTRF signal was measured on a Fusion plate reader (Perkin Elmer, Boston, Mass.).

[3] = target: human JAK3 (a.a. 781-1124) catalytic domain (Homo sapiens (Human), UniProt P52333); assay: In vitro JAK kinase assay (HTRF), JAK3; conditions: 3 μM ATP, 500 nM peptide, room temperature 1 hr
Method: as §1

[4] = target: human JAK2 (a.a. 828-1132) catalytic domain (Homo sapiens (Human), UniProt O60674); assay: In vitro JAK kinase assay (HTRF), JAK2; conditions: 30 μM ATP, 500 nM peptide, room temperature 1 hr
Method: One or more compounds herein were tested for inhibitory activity of JAK targets according to the following in vitro assay described in Park et al., Analytical Biochemistry 1999, 269, 94-104. The catalytic domains of human JAK1 (a.a. 837-1142), JAK2 (a.a. 828-1132) and JAK3 (a.a. 781-1124) with an N-terminal His tag were expressed using baculovirus in insect cells and purified. The catalytic activity of JAK1, JAK2 or JAK3 was assayed by measuring the phosphorylation of a biotinylated peptide. The phosphorylated peptide was detected by homogenous time resolved fluorescence (HTRF). […] Binding to the Europium labeled antibody took place for 40 minutes and HTRF signal was measured on a Fusion plate reader (Perkin Elmer, Boston, Mass.).

[5] = target: Recombinant Human Anaplastic Lymphoma Kinase (Homo sapiens (Human), UniProt Q9UM73); assay: ALK HTRF kinase assay; conditions: 90 μM ATP, 0.25 nM enzyme, 2 hours at 25° C.
Method: Materials: Recombinant Human Anaplastic Lymphoma Kinase was purchased from Invitrogen, Carlsbad, Calif. Peptide substrate (Biotin-[…]-amide) was custom synthesized at EZBiolab, Westfield, Ind. Streptavidin conjugated SureLight-Allophycocyania and LANCE Eu-W1024 labeled anti-phosphotyrosine antibody were from Perkin-Elmer, Boston, Mass. Microplates were from Corning Inc., Acton, Mass. All other reagents were from Sigma, St. Louis, Mo.
HTRF kinase assay: 40 μL reactions were run in black 384 well polystyrene plates in assay buffer (50 mM Tris, pH 7.8, 100 mM NaCI, 0.1 mg/mL BSA, 5 mM DTT), containing 0.5 μM Biotinylated peptide substrate, 10 mM MgCl2, 90 μM ATP, and 0.25 nM enzyme for 2 hours at 25° C. Reactions were stopped by addition of 20 μL assay buffer supplemented with an additional 50 mM NaCl, 0.4 mg/mL BSA, 45 mM EDTA, 4.5 nM LANCE Eu-W1024 labeled anti-phosphotyrosine antibody and 200 nM streptavidin conjugated SureLight-allophycocyanin. Plates were read in Fusion α-FP instrument (Perkin-Elmer). The concentrations needed to reach 50% inhibition, the IC50 value, were determined by fitting the assay signal to the following equation using Graphpad Prizm. Signal=Bottom+(Top−Bottom)/(1+10^((Log(IC50)−Log [I])*Hill Slope) Bottom and Top refer to the post and pre-transition baselines, respectively.

TYK2, sequence (P29597 whole entry, species assumed): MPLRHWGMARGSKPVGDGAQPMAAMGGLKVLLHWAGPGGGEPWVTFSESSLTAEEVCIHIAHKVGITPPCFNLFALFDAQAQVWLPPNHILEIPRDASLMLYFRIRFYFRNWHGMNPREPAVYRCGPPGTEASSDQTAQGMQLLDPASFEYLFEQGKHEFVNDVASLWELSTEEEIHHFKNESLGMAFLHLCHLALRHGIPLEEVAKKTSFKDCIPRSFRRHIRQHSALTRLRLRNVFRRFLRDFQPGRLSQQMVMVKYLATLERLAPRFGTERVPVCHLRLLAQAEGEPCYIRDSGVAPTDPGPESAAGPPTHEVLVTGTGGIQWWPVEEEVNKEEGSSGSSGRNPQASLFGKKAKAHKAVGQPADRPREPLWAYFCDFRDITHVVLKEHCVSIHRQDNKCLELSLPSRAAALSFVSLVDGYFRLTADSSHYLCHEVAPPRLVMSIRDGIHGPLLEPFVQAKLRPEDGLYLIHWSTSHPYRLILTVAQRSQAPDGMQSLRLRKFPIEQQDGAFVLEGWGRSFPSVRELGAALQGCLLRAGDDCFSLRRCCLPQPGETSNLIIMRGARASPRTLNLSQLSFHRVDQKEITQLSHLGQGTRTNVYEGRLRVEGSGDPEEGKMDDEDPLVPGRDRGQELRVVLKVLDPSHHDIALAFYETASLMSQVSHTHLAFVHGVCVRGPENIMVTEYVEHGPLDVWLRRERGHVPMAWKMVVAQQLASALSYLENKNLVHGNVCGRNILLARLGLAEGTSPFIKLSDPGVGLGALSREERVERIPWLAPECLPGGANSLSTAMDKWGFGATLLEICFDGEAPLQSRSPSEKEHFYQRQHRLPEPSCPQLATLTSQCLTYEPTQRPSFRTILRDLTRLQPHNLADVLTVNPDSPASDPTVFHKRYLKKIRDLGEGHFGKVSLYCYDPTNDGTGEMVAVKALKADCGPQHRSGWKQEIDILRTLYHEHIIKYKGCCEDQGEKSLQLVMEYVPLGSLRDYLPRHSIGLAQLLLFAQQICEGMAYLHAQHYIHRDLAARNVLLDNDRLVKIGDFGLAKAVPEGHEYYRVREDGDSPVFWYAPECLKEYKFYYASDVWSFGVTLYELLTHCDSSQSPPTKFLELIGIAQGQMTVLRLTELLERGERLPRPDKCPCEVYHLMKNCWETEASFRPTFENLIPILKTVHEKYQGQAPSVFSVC
human JAK3 (a.a. 781-1124) catalytic domain, sequence (P52333 781-1124): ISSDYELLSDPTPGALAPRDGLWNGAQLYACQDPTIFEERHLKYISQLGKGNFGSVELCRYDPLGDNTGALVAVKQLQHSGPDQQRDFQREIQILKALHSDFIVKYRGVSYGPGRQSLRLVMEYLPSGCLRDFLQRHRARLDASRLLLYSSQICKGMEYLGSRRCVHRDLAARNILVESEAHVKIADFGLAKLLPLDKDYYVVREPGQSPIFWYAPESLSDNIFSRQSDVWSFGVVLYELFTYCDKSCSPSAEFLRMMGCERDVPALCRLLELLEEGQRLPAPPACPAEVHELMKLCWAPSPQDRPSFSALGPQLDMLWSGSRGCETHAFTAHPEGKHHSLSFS
human JAK2 (a.a. 828-1132) catalytic domain, sequence (O60674 828-1132): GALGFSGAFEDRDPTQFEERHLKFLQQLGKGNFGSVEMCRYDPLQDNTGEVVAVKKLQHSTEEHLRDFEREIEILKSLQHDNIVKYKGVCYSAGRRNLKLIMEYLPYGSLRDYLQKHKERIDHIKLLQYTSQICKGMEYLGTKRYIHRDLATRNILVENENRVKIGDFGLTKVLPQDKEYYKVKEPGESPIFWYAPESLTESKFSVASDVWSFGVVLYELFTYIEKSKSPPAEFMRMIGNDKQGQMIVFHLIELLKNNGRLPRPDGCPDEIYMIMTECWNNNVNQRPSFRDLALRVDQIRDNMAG
Recombinant Human Anaplastic Lymphoma Kinase, sequence (Q9UM73 19-1620): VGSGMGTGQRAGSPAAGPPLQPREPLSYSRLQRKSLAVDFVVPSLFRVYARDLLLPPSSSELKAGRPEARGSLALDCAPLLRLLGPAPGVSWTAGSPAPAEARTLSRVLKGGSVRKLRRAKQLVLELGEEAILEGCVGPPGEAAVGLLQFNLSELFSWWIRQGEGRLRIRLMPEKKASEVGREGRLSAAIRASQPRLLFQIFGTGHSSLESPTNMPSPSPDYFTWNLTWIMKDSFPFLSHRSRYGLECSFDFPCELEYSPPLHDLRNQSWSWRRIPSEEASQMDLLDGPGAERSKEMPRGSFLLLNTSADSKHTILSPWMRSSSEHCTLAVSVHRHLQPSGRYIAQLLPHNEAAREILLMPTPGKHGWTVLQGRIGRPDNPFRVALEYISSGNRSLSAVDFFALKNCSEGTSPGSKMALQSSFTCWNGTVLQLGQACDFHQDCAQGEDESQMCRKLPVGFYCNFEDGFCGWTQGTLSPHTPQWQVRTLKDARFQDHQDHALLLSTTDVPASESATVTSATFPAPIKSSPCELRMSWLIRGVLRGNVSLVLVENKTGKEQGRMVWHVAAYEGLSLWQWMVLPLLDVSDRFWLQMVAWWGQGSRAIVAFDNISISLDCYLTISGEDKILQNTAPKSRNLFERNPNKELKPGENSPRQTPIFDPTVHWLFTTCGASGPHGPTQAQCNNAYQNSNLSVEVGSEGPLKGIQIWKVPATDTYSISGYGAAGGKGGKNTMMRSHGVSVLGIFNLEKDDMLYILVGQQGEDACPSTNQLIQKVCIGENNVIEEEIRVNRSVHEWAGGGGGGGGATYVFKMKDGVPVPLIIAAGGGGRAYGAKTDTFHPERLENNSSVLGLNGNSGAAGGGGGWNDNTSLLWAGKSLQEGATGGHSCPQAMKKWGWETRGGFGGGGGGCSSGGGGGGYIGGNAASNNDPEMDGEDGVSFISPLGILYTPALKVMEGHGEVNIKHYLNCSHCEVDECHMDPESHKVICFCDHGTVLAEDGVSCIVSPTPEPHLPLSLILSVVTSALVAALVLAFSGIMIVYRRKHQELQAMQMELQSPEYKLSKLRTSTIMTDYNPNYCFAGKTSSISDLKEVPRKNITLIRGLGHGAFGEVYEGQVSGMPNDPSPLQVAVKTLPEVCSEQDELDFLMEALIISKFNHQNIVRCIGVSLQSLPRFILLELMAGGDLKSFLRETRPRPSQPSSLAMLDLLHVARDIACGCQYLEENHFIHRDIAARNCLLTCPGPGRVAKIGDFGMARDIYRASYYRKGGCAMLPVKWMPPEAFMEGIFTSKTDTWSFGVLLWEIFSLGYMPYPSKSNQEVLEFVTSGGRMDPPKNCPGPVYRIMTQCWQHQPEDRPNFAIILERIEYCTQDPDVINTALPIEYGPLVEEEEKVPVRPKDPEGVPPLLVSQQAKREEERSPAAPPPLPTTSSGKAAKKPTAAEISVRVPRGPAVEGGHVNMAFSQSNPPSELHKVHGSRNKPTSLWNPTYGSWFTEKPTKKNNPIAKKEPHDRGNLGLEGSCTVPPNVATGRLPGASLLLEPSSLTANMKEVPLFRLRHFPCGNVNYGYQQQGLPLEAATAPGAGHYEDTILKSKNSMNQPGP

| IC50 [1] [nM] | IC50 [2] [nM] | IC50 [3] [nM] | IC50 [4] [nM] | IC50 [5] [nM] | SMILES |
| --- | --- | --- | --- | --- | --- |
| 386 | 102 | 114 | 447 | > 1000 | Nc1ccc2cc1CCc1cncc(c1)Nc1ncc(Cl)c(n1)NC2 [Example 17, 6-Chloro-2,4,8,19,23-pentaazatetracyclo[15.3.1.1(3,7).1(10,14)]tricosa-1(21),3(23),4,6,10(22),11,13,17,19-nonaen-13-amine] |
| > 1000 | > 1000 | > 1000 | > 1000 | > 1000 | O=C(Nc1ccc2cc1CCc1cncc(c1)Nc1ncc(Cl)c(n1)NC2)c1ccccc1 [Example 18, N-[6-Chloro-2,4,8,19,23-pentaazatetracyclo[15.3.1.1(3,7).1(10,14)]tricosa-1(21),3(23),4,6,10(22),11,13,17,19-nonaen-13-yl]benzamide bis(trifluoroacetate)] |
| > 1000 | > 1000 | > 1000 | > 1000 | > 1000 | N#Cc1ccccc1S(=O)(=O)Nc1ccc2cc1CCc1cncc(c1)Nc1ncc(Cl)c(n1)NC2 [Example 19, N-[6-Chloro-2,4,8,19,23-pentaazatetracyclo[15.3.1.1(3,7).1(10,14)]tricosa-1(21),3(23),4,6,10(22),11,13,17,19-nonaen-13-yl]-2-cyanobenzenesulfonamide bis(trifluoroacetate)] |
